The values below are quoted from earlier work in patent publication US12421495B2, “Compositions and methods for selective phagocytosis of human cancer cells” (THE TRUSTEES OF THE UNIVERSITY OF PENNSYLVANIA, priority 2015, dated 2025).

SMILES strings stand for the structures.

For this series, the system named is tdTomato A549 tumors. As to conditions: same tumor model; Nair et al. 2016.

Take `CC(=O)O[C@H]1C(=O)[C@@]2(C)[C@H]([C@H](OC(=O)c3ccccc3)[C@]3(O)C[C@H](OC(=O)[C@H](O)[C@@H](NC(=O)c4ccccc4)c4ccccc4)C(C)=C1C3(C)C)[C@]1(OC(C)=O)CO[C@@H]1C[C@@H]2O` [Paclitaxel]: the “tumor shrinkage by day 10” value is on record as −25%.
